Blank lines part the entries; values can stand above or below the compound they belong to.
Tested on: 361931-004-R-J1-PDC multicell spheroid viability
Assay: Anticancer human tumor 361931-004-R-J1-PDC patient-derived colon adenocarcinoma cell line growth inhibition [PI3K]
Settings: for IC50: curve of first compound; for viability, T/C: stronger effect = lower value
Source text: Combinatorial screen of targeted agents with the PI3K inhibitors inavolisib, alpelisib, duvelisib, and copanlisib in multi-cell type tumor spheroids
A high-throughput screen of multi-cell type tumor spheroids was designed to identify active combinations of targeted small molecules and PI3K pathway inhibitors. Complex spheroids include a stromal component modeled by human endothelial cells (HUVEC) and fibroblasts modeled by human mesenchymal stem cells (MSCs). The concentration ranges selected for each drug and investigational agent were based upon clinically achievable concentrations if the clinical Cmax of the agent was known.
Compounds. The drugs and investigational agents: inavolisib (NSC800729), alpelisib (NSC765974), duvelisib (NSC772469), copanlisib (NSC816437), ipatasertib (NSC767898), afuresertib (NSC778305), talazoparib (NSC767125), sapanisertib (NSC764658), selumetinib (NSC741078), tovorafenib (DAY101, NSC766906), vemurafenib (NSC761431), ravoxertinib (NSC781343), sotorasib (NSC818433), MRTX1133 (NSC 836407), abemaciclib (NSC 768073), palbociclib (NSC758247), venetoclax (NSC 766270), SY5609 (NSC837396), enzalutamide (NSC755605), and darolutamide (NSC825331), were obtained from the National Cancer Institute (NCI) Developmental Therapeutics Program Chemical Repository. The FDA-approved anticancer drug set is available from the NCI Developmental Therapeutics Program. […] The stock solutions were prepared in dimethyl sulfoxide (DMSO, Sigma-Aldrich, St. Louis, MO, cat. D2650) at 800-fold the tested concentration and stored at -70 degrees C prior to their use. All drugs and investigational agents were tested over a range starting from a high concentration at or near the clinical Cmax and decreasing in half-log increments. If the clinical Cmax for an agent had not been determined, the highest concentration tested was 10 microM.
Cell Culture. All cells were maintained in an incubator at 37 degrees C and 5% CO2 with 95% humidity. The PDC lines were cultured according to standard operating procedures established by the NCI PDMR (https://pdmr.cancer.gov/sops/default.htm). All PDCs were thawed and cultured in Matrigel-coated flasks prepared with a working solution of 1X Ham's F-12 nutrient mix, without supplementation (Invitrogen, Waltham, MA, cat. 11765054), 100 U/mL penicillin-streptomycin (Invitrogen, cat. 15140122), and 2.5% Matrigel (Corning Inc., Corning, NY, cat. 354248) for the first three passages. The 354836-022-R-J1-PDC, 475296-252-R-J1-PDC, and 997726-040-R-J2-PDC lines were cultured in 6A media, which includes advanced DMEM/F-12 (Thermo Fisher Scientific, cat. 12634028), 10 mM HEPES (Thermo Fisher Scientific, cat. 15630080), 1X GlutaMAX supplement (Thermo Fisher Scientific, cat. 35050061), 0.1 mg/mL primocin (InvivoGen, San Diego, CA, cat. ant-pm-2), 10% defined fetal bovine serum, heat inactivated (HyClone Laboratories Inc., Logan, UT, cat. SH30070.03HI), 50% L-WRN conditioned media (ATCC, cat. CRL-3276), 1.25 mM N-Acetyl-L-cysteine (Sigma-Aldrich, cat. A9165), 10 mM nicotinamide (Sigma-Aldrich, cat. N0636), 1X B-27 supplement (Thermo Fisher Scientific, cat. 17504044), 1X N-2 supplement (Thermo Fisher Scientific, cat. 17502048), and 10 microM Y-27632 dihydrochloride (Tocris Bioscience, Bristol, United Kingdom, cat. 1254). The 624824-186-R-J2-PDC line was cultured in 6C/Colon 1B media, which includes all 6A media components plus 50 ng/mL human EGF recombinant protein (Thermo Fisher Scientific, cat. PHG0311). […]

[1] = second compound 0.00316 µM, first compound 0.0316 µM
[2] = second compound 0.00316 µM, first compound 0.1 µM
[3] = second compound 0.00316 µM, first compound 0.316 µM
[4] = second compound 0.00316 µM, first compound 1 µM
[5] = second compound 0.00316 µM, first compound 3.16 µM
[6] = second compound 0.00316 µM, first compound 10 µM
[7] = second compound 0.01 µM, first compound 0.0316 µM
[8] = second compound 0.01 µM, first compound 0.1 µM
[9] = second compound 0.01 µM, first compound 0.316 µM
[10] = second compound 0.01 µM, first compound 1 µM
[11] = second compound 0.01 µM, first compound 3.16 µM
[12] = second compound 0.01 µM, first compound 10 µM
[13] = second compound 0.0316 µM, first compound 0.0316 µM
[14] = second compound 0.0316 µM, first compound 0.1 µM
[15] = second compound 0.0316 µM, first compound 0.316 µM
[16] = second compound 0.0316 µM, first compound 1 µM
[17] = second compound 0.0316 µM, first compound 3.16 µM
[18] = second compound 0.0316 µM, first compound 10 µM
[19] = second compound 0.1 µM, first compound 0.0316 µM
[20] = second compound 0.1 µM, first compound 0.1 µM
[21] = second compound 0.1 µM, first compound 0.316 µM
[22] = second compound 0.1 µM, first compound 1 µM
[23] = second compound 0.1 µM, first compound 3.16 µM
[24] = second compound 0.1 µM, first compound 10 µM
[25] = second compound 0.316 µM, first compound 0.0316 µM
[26] = second compound 0.316 µM, first compound 0.1 µM
[27] = second compound 0.316 µM, first compound 0.316 µM
[28] = second compound 0.316 µM, first compound 1 µM
[29] = second compound 0.316 µM, first compound 3.16 µM
[30] = second compound 0.316 µM, first compound 10 µM
[31] = second compound 1 µM, first compound 0.0316 µM
[32] = second compound 1 µM, first compound 0.1 µM
[33] = second compound 1 µM, first compound 0.316 µM
[34] = second compound 1 µM, first compound 1 µM
[35] = second compound 1 µM, first compound 3.16 µM
[36] = second compound 1 µM, first compound 10 µM
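Note: spheroids exposed to agents for seven days before readout.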

IC50 (second compound 0.00316 µM): 4.2 µM | IC50 (second compound 0.01 µM): 4.29 µM | IC50 (second compound 0.0316 µM): 4.05 µM | IC50 (second compound 0.1 µM): 3.93 µM | IC50 (second compound 0.316 µM): 3.36 µM | IC50 (second compound 1 µM): 3.32 µM
SMILES: CC1(C)CCC(CN2CCN(c3ccc(C(=O)NS(=O)(=O)c4ccc(NCC5CCOCC5)c([N+](=O)[O-])c4)c(Oc4cnc5[nH]ccc5c4)c3)CC2)=C(c2ccc(Cl)cc2)C1 + CC(Nc1ccc2c(c1)OCCn1cc(N3C(=O)OCC3C(F)F)nc1-2)C(N)=O
viability, T/C [1]: 104% | viability, T/C [2]: 98.4% | viability, T/C [3]: 112% | viability, T/C [4]: 101% | viability, T/C [5]: 65.6% | viability, T/C [6]: 2.39% | viability, T/C [7]: 93.3% | viability, T/C [8]: 99.7% | viability, T/C [9]: 91.5% | viability, T/C [10]: 103% | viability, T/C [11]: 67% | viability, T/C [12]: 2.81% | viability, T/C [13]: 99.1% | viability, T/C [14]: 109% | viability, T/C [15]: 92.1% | viability, T/C [16]: 101% | viability, T/C [17]: 63% | viability, T/C [18]: 2.11% | viability, T/C [19]: 99% | viability, T/C [20]: 99.8% | viability, T/C [21]: 95.9% | viability, T/C [22]: 85.3% | viability, T/C [23]: 61.9% | viability, T/C [24]: 1.48% | viability, T/C [25]: 86.7% | viability, T/C [26]: 84.7% | viability, T/C [27]: 87.8% | viability, T/C [28]: 84.3% | viability, T/C [29]: 52.7% | viability, T/C [30]: 1.87% | viability, T/C [31]: 78% | viability, T/C [32]: 80.7% | viability, T/C [33]: 75.8% | viability, T/C [34]: 71.2% | viability, T/C [35]: 52.4% | viability, T/C [36]: 1.28%

IC50 (second compound 0.00316 µM): > 10 µM | IC50 (second compound 0.01 µM): > 10 µM | IC50 (second compound 0.0316 µM): > 10 µM | IC50 (second compound 0.1 µM): > 10 µM | IC50 (second compound 0.316 µM): > 10 µM | IC50 (second compound 1 µM): 5.85 µM
SMILES: C[C@@H](NC(=O)c1ncnc(N)c1Cl)c1ncc(C(=O)Nc2cc(C(F)(F)F)c(Cl)cn2)s1 + CC(Nc1ccc2c(c1)OCCn1cc(N3C(=O)OCC3C(F)F)nc1-2)C(N)=O
viability, T/C [1]: 110% | viability, T/C [2]: 102% | viability, T/C [3]: 105% | viability, T/C [4]: 91.2% | viability, T/C [5]: 96.8% | viability, T/C [6]: 84.6% | viability, T/C [7]: 110% | viability, T/C [8]: 109% | viability, T/C [9]: 98% | viability, T/C [10]: 89.6% | viability, T/C [11]: 95% | viability, T/C [12]: 75.4% | viability, T/C [13]: 101% | viability, T/C [14]: 105% | viability, T/C [15]: 92.2% | viability, T/C [16]: 99% | viability, T/C [17]: 82.4% | viability, T/C [18]: 73.1% | viability, T/C [19]: 97.6% | viability, T/C [20]: 97.1% | viability, T/C [21]: 92.1% | viability, T/C [22]: 88.7% | viability, T/C [23]: 89.1% | viability, T/C [24]: 59.9% | viability, T/C [25]: 97.9% | viability, T/C [26]: 86.8% | viability, T/C [27]: 75.9% | viability, T/C [28]: 78.2% | viability, T/C [29]: 70.5% | viability, T/C [30]: 47.2% | viability, T/C [31]: 77.9% | viability, T/C [32]: 80.2% | viability, T/C [33]: 73.5% | viability, T/C [34]: 66% | viability, T/C [35]: 61.4% | viability, T/C [36]: 41.5%

IC50 (second compound 0.00316 µM): > 0.1 µM | IC50 (second compound 0.01 µM): > 0.1 µM | IC50 (second compound 0.0316 µM): > 0.1 µM | IC50 (second compound 0.1 µM): > 0.1 µM | IC50 (second compound 0.316 µM): > 0.1 µM | IC50 (second compound 1 µM): > 0.1 µM
SMILES: Cn1ncnc1[C@H]1c2n[nH]c(=O)c3cc(F)cc(c23)N[C@@H]1c1ccc(F)cc1 + CC(Nc1ccc2c(c1)OCCn1cc(N3C(=O)OCC3C(F)F)nc1-2)C(N)=O
viability, T/C (second compound 0.00316 µM, first compound 0.000316 µM): 95.9% | viability, T/C (second compound 0.00316 µM, first compound 0.001 µM): 96.1% | viability, T/C (second compound 0.00316 µM, first compound 0.00316 µM): 89.4% | viability, T/C (second compound 0.00316 µM, first compound 0.01 µM): 88.8% | viability, T/C [1]: 95.6% | viability, T/C [2]: 81.9% | viability, T/C (second compound 0.01 µM, first compound 0.000316 µM): 99.7% | viability, T/C (second compound 0.01 µM, first compound 0.001 µM): 98.7% | viability, T/C (second compound 0.01 µM, first compound 0.00316 µM): 94.6% | viability, T/C (second compound 0.01 µM, first compound 0.01 µM): 94.2% | viability, T/C [7]: 89.8% | viability, T/C [8]: 91.1% | viability, T/C (second compound 0.0316 µM, first compound 0.000316 µM): 97.8% | viability, T/C (second compound 0.0316 µM, first compound 0.001 µM): 100% | viability, T/C (second compound 0.0316 µM, first compound 0.00316 µM): 95.4% | viability, T/C (second compound 0.0316 µM, first compound 0.01 µM): 94.3% | viability, T/C [13]: 98% | viability, T/C [14]: 93.6% | viability, T/C (second compound 0.1 µM, first compound 0.000316 µM): 101% | viability, T/C (second compound 0.1 µM, first compound 0.001 µM): 77.5% | viability, T/C (second compound 0.1 µM, first compound 0.00316 µM): 93.7% | viability, T/C (second compound 0.1 µM, first compound 0.01 µM): 86.2% | viability, T/C [19]: 82% | viability, T/C [20]: 67.1% | viability, T/C (second compound 0.316 µM, first compound 0.000316 µM): 89.3% | viability, T/C (second compound 0.316 µM, first compound 0.001 µM): 94.8% | viability, T/C (second compound 0.316 µM, first compound 0.00316 µM): 86.2% | viability, T/C (second compound 0.316 µM, first compound 0.01 µM): 85.4% | viability, T/C [25]: 77.5% | viability, T/C [26]: 76.2% | viability, T/C (second compound 1 µM, first compound 0.000316 µM): 85.9% | viability, T/C (second compound 1 µM, first compound 0.001 µM): 77.4% | viability, T/C (second compound 1 µM, first compound 0.00316 µM): 88.2% | viability, T/C (second compound 1 µM, first compound 0.01 µM): 69.7% | viability, T/C [31]: 70.6% | viability, T/C [32]: 64.4%

Reference: PubChem BioAssay AID1963979 (Molecular Pharmacology Branch, DTP, NCI, 2024)
